# Measurements from patent publication US20120190752A1, “EXO-S-MECAMYLAMINE METHOD, USE, AND COMPOUND FOR TREATMENT” (Targacept Inc., priority 2009, published 2012).
# Tested on: subjects with major depressive disorder (MDD) who were inadequate responders to citalopram
# Experiment: Individual MADRS factor (subscale) scores, exploratory analysis
# Assay type: in vivo, human
# Protocol: In more detail, a multi-center double-blind, randomized, placebo-controlled, parallel group, flexible dose titration study of TC-5214 as adjunctive therapy in subjects with major depressive disorder (MDD) who were inadequate responders to citalopram was conducted in centers in the US and India. The study consisted of a screening period, baseline/washout period, open-label phase, double-blind phase, and a follow-up visit. Subject participation in the study could continue for up to 16 weeks of treatment. Following a washout period of up to 28 days for other antidepressants, subjects with MDD and a MADRS total score >/=28 and a Clinical Global Impression-Severity (CGI-S) score >/=4 were enrolled on Day 1 into an open-label citalopram-only phase of the study. This phase lasted 8 weeks, with citalopram (CIT) dose increased from a once-daily dose of 20 mg (Day 1 through Week 4) to 40 mg (Week 4 through Week 8). A total of 579 subjects entered the open-label citalopram phase. At Week 8, subjects who tolerated 40 mg CIT, but whose MADRS score was reduced <50% from baseline and no lower than 17, and CGI-S≧4, were considered inadequate responders. These subjects (n=270) were randomized in a double-blind fashion to receive either placebo or TC-5214-23 as add-on therapy to continued CIT. The double-blind phase of the study also lasted 8 weeks (Week 8 to Week 16). Study drug, TC-5214-23 or placebo, was started at 2 mg daily (1 mg twice per day [BID] dosing), added on to continuing CIT (40 mg PO qd). After 2 weeks of treatment, the dose of TC-5214 could be increased to 4 mg (2 mg BID) or continued unchanged, with up-titration based upon good tolerability and inadequate therapeutic response. After a further 2 weeks, the dose of TC-5214 could be increased again to 8 mg (4 mg BID) if judged appropriate by the investigator, based upon good tolerability and inadequate therapeutic response. At any time during the double-blind phase of the study, placebo or TC-5214-23 could be reduced to the previous dose level following the emergence of unacceptable adverse events (AEs). […] At this follow-up, any signs or symptoms of relapse were evaluated. If a subject was prematurely discontinued from the study between Week 8 and Week 16 for any reason, the investigator was to make every effort to perform all evaluations as per protocol, assuming the subject had reached the end of the double-blind add-on treatment phase. These evaluations were to be made as soon as possible and within 2 weeks of discontinuation. […] There was no meaningful difference in results as a function of age, gender, site, or smoking status. The exploratory analysis assessed the differences in the treatment groups in change from Week 8 (double-blind baseline) to Week 16 for each individual MADRS factor score.
# [1] = ITT population, Week 8 (double-blind baseline) to Week 16
smiles,measurement,setting,value
"CNC1(C)C2CCC(C2)C1(C)C (stereo in doubt) [TC-5214, (S)—N,2,3,3-tetramethylnorbornan-2-amine]",MADRS item 1 Apparent Sadness: Adjusted Mean Change TC-5214—Placebo (SD),[1],−0.88 (1.26)
same,MADRS item 1 Apparent Sadness: Effect Size,[1],0.70
same,MADRS item 2 Reported Sadness: Adjusted Mean Change TC-5214—Placebo (SD),[1],−0.88 (1.28)
same,MADRS item 2 Reported Sadness: Effect Size,[1],0.69
same,MADRS item 3 Inner Tension: Adjusted Mean Change TC-5214—Placebo (SD),[1],−0.79 (1.13)
same,MADRS item 3 Inner Tension: Effect Size,[1],0.70
same,MADRS item 4 Reduced Sleep: Adjusted Mean Change TC-5214—Placebo (SD),[1],−0.99 (1.40)
same,MADRS item 4 Reduced Sleep: Effect Size,[1],0.71
same,MADRS item 5 Reduced Appetite: Adjusted Mean Change TC-5214—Placebo (SD),[1],−0.76 (1.30)
same,MADRS item 5 Reduced Appetite: Effect Size,[1],0.58
same,MADRS item 6 Concentration Difficulties: Adjusted Mean Change TC-5214—Placebo (SD),[1],−0.70 (1.20)
same,MADRS item 6 Concentration Difficulties: Effect Size,[1],0.58
same,MADRS item 7 Lassitude: Adjusted Mean Change TC-5214—Placebo (SD),[1],−0.75 (1.20)
same,MADRS item 7 Lassitude: Effect Size,[1],0.63
same,MADRS item 8 Inability to Feel: Adjusted Mean Change TC-5214—Placebo (SD),[1],−0.76 (1.25)
same,MADRS item 8 Inability to Feel: Effect Size,[1],0.61
same,MADRS item 9 Pessimistic Thoughts: Adjusted Mean Change TC-5214—Placebo (SD),[1],−0.74 (1.18)
same,MADRS item 9 Pessimistic Thoughts: Effect Size,[1],0.63
same,MADRS item 10 Suicidal Thoughts: Adjusted Mean Change TC-5214—Placebo (SD),[1],−0.29 (0.61)
same,MADRS item 10 Suicidal Thoughts: Effect Size,[1],0.48
same,each MADRS subscale score change from baseline compared with placebo,"ITT, result in words",statistically significant decreases (improvements)
